{"source": "ChEMBL document CHEMBL1201862", "about": "“PubChem BioAssay data set” (2004)", "key": {"[1]": {"assay": "Luminescence Cell-Based Dose Retest to Confirm Inhibitors of Cancer Stem Cells. [Related pubchem assays (depositor defined):AID2717, AID2721]", "format": "functional", "settings": "Homo sapiens"}, "[2]": {"target": "T1, Melanocortin receptor 4 (Homo sapiens, UniProt P32245)", "T1 sequence (P32245 whole entry)": "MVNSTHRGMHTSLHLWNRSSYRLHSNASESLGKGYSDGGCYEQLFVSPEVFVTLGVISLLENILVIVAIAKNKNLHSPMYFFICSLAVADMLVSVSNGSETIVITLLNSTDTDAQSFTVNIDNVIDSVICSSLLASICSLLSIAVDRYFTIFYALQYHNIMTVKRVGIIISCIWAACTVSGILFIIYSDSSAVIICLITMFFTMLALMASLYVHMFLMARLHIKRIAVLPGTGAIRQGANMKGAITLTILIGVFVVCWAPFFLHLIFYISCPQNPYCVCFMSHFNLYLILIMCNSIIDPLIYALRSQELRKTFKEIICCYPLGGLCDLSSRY", "assay": "MC4R antagonist potency on cAMP, dose response, cell-based, TR-FRET, biased antagonists (AID 602298);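 note: antagonist potency against agonist-stimulated cAMP production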", "format": "functional"}, "[3]": {"target": "T1, Melanocortin receptor 4", "format": "functional, cell-based"}, "[4]": {"assay": "nonselective inhibitors of cellular cAMP signaling, dose response, counter-screen for MC4R biased antagonist project, cell-based, TR-FRET cAMP detection (AID 602305);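 note: U2OS cells stimulated with forskolin near its EC80 as the cAMP inducer; potency is for inhibition of forskolin-stimulated cAMP signaling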", "format": "functional"}, "[5]": {"assay": "A549 cell cytotoxicity, dose response, cytotoxicity control, plate reader, cherry-pick, antagonist series (AID 743412)", "format": "functional, cell-based"}, "[6]": {"assay": "LGR2 antagonists, dose response, cell-based, HEK293, CRE-luciferase reporter, cherry pick, set 2 (AID 743343);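 note: transfected cells were stimulated with diluted bursicon conditioned medium after compound addition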", "format": "functional"}, "[7]": {"assay": "MC4R antagonists, dose response, counter-screen for LGR2 antagonist project, cell-based, plate reader, cherry pick (AID 743444);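 note: transfected HEK 293 cells stimulated with alpha-MSH peptide; potency of inhibitors of the alpha-MSH evoked signal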", "format": "functional"}, "[8]": {"assay": "HEK293 cell cytotoxicity, dose response, cytotoxicity control, plate reader, cherry-picked samples (AID 743446)", "format": "functional, cell-based"}, "[9]": {"target": "T2, Oxysterols receptor LXR-beta (Homo sapiens, UniProt P55055)", "T2 sequence (P55055 whole entry)": "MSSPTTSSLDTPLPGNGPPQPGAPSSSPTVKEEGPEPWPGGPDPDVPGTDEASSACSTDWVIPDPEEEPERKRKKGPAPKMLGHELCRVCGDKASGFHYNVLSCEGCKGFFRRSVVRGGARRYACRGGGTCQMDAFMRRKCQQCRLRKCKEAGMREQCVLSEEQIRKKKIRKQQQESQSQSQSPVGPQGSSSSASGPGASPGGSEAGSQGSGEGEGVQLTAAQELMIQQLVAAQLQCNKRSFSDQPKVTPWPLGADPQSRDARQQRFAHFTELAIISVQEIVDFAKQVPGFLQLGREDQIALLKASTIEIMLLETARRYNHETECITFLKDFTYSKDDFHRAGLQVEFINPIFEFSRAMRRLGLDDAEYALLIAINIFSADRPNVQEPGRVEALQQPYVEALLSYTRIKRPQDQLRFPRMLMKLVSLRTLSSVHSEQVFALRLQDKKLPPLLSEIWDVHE", "format": "functional, cell-based"}, "[10]": {"target": "Beta-galactosidase (Escherichia coli, UniProt Q8VNN2)", "sequence (Q8VNN2 whole entry)": "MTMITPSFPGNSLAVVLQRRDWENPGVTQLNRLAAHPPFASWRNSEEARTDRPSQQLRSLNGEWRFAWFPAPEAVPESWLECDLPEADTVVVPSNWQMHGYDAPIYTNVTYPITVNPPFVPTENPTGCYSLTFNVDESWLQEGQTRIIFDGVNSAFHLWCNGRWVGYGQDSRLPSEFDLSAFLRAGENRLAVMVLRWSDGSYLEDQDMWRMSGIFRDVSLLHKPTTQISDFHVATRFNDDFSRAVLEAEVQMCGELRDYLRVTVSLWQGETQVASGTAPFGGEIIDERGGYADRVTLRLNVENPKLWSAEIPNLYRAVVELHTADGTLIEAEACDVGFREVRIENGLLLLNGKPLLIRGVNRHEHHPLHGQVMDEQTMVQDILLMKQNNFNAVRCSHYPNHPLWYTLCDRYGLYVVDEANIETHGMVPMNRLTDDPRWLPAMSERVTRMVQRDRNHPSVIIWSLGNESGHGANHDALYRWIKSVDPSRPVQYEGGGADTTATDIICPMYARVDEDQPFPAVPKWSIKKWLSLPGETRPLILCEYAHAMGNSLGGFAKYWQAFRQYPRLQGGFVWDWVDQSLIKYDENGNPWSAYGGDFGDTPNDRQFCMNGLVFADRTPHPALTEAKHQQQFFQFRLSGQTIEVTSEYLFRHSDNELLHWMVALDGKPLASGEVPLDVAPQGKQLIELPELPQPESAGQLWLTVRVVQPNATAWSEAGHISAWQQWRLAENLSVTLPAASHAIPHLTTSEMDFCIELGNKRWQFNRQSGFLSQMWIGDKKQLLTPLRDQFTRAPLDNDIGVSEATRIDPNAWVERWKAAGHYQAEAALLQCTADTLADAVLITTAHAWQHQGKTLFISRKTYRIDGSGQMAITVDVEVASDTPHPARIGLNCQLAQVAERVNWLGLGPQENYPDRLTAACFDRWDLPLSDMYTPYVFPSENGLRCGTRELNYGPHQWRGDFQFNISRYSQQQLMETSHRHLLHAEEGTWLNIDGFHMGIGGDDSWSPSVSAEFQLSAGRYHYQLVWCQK", "assay": "Dose response counterscreen for EBI2 assay utilizing the enzyme, b-galactosidase.", "format": "functional"}, "[11]": {"assay": "inhibitors of HIV Env-driven cell fusion, dose response, cherry-pick (AID 652057)", "format": "functional, cell-based"}, "[12]": {"assay": "CEM21 lymphoblast cell cytotoxicity, dose response, cytotoxicity control for viral fusion inhibitor project, CellTiter-Glo luminescence, cherry-picked (AID 652042);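 note: potency for signal decrease meaning cytotoxicity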", "format": "functional, cell-based"}, "[13]": {"assay": "ZM109 Env clade C HIV-1 fusion inhibitors, dose response, HeLa effector, CEM target cells, luciferase, cherry-pick (AID 652058)", "format": "functional, cell-based"}, "[14]": {"assay": "inhibitors of clade B AD8 Env fusion, dose response, cell-based, cherry-pick (AID 652062);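 note: potency is for inhibitors of fusion seen as a drop in luminescence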", "format": "functional"}, "[15]": {"target": "Beta-lactamase (Pseudomonas aeruginosa, UniProt Q79MP6)", "sequence (Q79MP6 whole entry)": "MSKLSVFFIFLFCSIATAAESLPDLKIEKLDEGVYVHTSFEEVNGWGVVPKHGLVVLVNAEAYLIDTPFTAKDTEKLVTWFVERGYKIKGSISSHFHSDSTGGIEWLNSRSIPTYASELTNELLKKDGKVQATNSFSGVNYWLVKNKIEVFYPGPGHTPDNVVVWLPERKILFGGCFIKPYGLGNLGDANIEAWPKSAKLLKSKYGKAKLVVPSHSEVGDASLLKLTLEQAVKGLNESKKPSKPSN"}, "[16]": {"target": "Beta-lactamase (Salmonella choleraesuis (strain SC-B67), UniProt Q5J463)", "sequence (Q5J463 whole entry)": "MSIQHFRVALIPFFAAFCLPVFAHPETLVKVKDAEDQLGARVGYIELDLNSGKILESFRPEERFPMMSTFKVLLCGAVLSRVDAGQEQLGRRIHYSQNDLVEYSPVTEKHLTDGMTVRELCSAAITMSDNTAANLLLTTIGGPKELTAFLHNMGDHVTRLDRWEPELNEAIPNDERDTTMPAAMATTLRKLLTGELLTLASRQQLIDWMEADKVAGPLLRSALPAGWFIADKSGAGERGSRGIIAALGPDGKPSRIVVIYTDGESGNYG"}, "[17]": {"target": "T3, Probable nicotinate-nucleotide adenylyltransferase (Staphylococcus aureus (strain N315), UniProt P65502)", "T3 sequence (P65502 whole entry)": "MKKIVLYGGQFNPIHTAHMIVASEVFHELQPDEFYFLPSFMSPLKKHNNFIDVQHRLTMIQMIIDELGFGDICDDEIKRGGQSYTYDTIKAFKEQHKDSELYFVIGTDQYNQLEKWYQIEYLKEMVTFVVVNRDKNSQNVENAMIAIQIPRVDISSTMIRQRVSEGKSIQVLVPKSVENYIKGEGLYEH", "format": "functional, Staphylococcus aureus subsp. aureus N315"}, "[18]": {"target": "T3, Probable nicotinate-nucleotide adenylyltransferase", "format": "functional, Staphylococcus aureus subsp. aureus N315", "settings": "read-out: IC50_Mean"}, "[19]": {"assay": "inhibitors of intracellular T. cruzi replication, confirmation, NIH3T3 host cells, beta-gal luminescence (AID 2044);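 note: luminescent beta-galactosidase reporter signal from transgenic T. cruzi replicating inside host cells; inhibitors lower the luminescence signal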", "format": "functional, cell-based"}, "[20]": {"assay": "growth suppression of PTEN-null colon cells, dose response, cell-based, HCT116 PTEN knockout (AID 1047);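 note: cells exposed to compound for 60 hours before readout; potency for loss of cell viability measured by luminescence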", "format": "functional"}, "[21]": {"assay": "cytotoxicity toward NIH3T3 fibroblasts, dose response, counter-screen, cell-based, ATP luminescence, mouse fibroblasts (AID 2010);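 note: cells exposed to compound for about 90 hours before reading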", "format": "functional"}, "[22]": {"assay": "growth suppression of beta-catenin-knockout colon cells, dose response, cell-based, HCT116, human colon tumor (AID 1045);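 note: cells exposed to compound for 60 hours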", "format": "functional"}, "[23]": {"target": "Glucose-6-phosphate 1-dehydrogenase (Homo sapiens, UniProt P11413)", "sequence (P11413 whole entry)": "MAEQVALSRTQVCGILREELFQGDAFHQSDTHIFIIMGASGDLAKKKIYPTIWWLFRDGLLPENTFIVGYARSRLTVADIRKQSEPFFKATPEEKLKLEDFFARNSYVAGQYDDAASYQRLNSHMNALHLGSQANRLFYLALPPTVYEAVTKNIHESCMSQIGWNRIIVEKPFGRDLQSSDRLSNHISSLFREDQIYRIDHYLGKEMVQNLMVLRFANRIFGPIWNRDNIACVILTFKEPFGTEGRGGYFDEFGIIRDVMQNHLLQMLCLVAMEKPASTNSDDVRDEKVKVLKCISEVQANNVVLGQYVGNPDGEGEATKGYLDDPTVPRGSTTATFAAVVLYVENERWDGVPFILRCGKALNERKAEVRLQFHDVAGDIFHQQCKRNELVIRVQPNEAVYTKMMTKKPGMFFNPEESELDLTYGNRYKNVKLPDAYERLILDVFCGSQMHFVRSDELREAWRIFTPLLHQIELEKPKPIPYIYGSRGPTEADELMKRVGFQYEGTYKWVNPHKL", "assay": "human G6PD enzyme inhibitors, dose response, selectivity assay for P. falciparum G6PD inhibitor project, biochemical, fluorescence (AID 504792)", "format": "functional"}, "[24]": {"target": "FAD-linked sulfhydryl oxidase ALR (Homo sapiens, UniProt P55789)", "sequence (P55789 whole entry)": "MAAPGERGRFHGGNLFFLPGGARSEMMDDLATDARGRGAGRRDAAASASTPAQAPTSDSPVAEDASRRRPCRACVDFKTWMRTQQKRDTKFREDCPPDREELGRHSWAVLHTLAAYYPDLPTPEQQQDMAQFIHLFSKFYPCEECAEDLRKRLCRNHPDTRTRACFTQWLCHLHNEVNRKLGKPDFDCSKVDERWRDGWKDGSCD", "assay": "inhibitors of human ALR sulfhydryl oxidase, dose response, biochemical, H2O2 detection, luminescence, cherry-pick (AID 493248)"}, "[25]": {"tested_on": "Vero", "assay": "cells", "format": "functional", "settings": "Chlorocebus sabaeus"}, "[26]": {"target": "T4, Mitochondrial peptide methionine sulfoxide reductase (Bos taurus, UniProt P54149)", "T4 sequence (P54149 whole entry)": "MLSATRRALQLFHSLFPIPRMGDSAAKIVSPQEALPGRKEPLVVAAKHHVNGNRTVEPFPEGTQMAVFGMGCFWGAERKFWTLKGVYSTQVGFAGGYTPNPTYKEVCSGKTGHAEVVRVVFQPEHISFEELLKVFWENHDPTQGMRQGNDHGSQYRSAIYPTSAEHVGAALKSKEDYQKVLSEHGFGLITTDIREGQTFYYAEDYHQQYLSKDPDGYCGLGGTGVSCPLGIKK", "assay": "Absorbance-based biochemical high throughput dose response assay for activators of Methionine sulfoxide reductase A (MsrA).", "format": "functional"}}, "note": "Calls of active or inactive are those of the source.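 Throughout, for IC50 Mean: confirmatory dose-response retesting of NadD inhibitor hits first found in an ultra-high-throughput screen.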", "data": [{"compound": "CCCCNc1c(-c2cccc(-c3cc(C(C)=O)cs3)c2)nc2ccc(C)cn12", "values": [{"measurement": "AC50", "setting": "[1]", "result": "4.47 µM (active)"}, {"measurement": "IC50", "setting": "[2]", "result": "> 64.6 µM (inactive)"}, {"measurement": "EC50", "setting": "[3]", "result": "> 89.2 µM (inactive)"}, {"measurement": "IC50", "setting": "[4]", "result": "> 64.6 µM (inactive)"}, {"measurement": "AC50", "setting": "[5]", "result": "> 52 µM (inactive)"}, {"measurement": "AC50", "setting": "[6]", "result": "11.4 µM (active)"}, {"measurement": "AC50", "setting": "[7]", "result": "14.5 µM (active)"}, {"measurement": "AC50", "setting": "[8]", "result": "> 52 µM (inactive)"}]}, {"compound": "CC1CCC(NC(=O)c2cccn2C)CC1", "note": "(stereo unspecified)", "values": [{"measurement": "EC50", "setting": "[9]", "result": "> 67.6 µM (inactive)"}]}, {"compound": "COc1ccccc1N1CCN(C(=O)c2cc3cc(C)ccc3[nH]2)CC1", "values": [{"measurement": "IC50", "setting": "[10]", "result": "> 80 µM (inactive)"}]}, {"compound": "C[C@H](CO)N1C[C@H](C)[C@H](CN(C)S(=O)(=O)c2ccccc2)Oc2ccc(NC(=O)Nc3cccc4ccccc34)cc2CC1=O", "values": [{"measurement": "AC50", "setting": "[11]", "result": "< 260 nM (active)"}, {"measurement": "AC50", "setting": "[12]", "result": "31.7 µM (active)"}, {"measurement": "AC50", "setting": "[13]", "result": "< 260 nM (active)"}, {"measurement": "AC50", "setting": "[14]", "result": "685 nM (active)"}]}, {"compound": "COCCCn1/c(=N/C(=O)c2ccccc2)c(C#N)cc2c(=O)n3cccc(C)c3nc21", "values": [{"measurement": "IC50", "setting": "[15]", "result": "> 59.6 µM (inactive)"}, {"measurement": "IC50", "setting": "[16]", "result": "> 59.6 µM (inactive)"}]}, {"compound": "CCn1cc(/C=N/NC(=O)c2cc3c(ccc4ccccc43)o2)c2ccccc21", "values": [{"measurement": "IC50", "setting": "[17]", "result": "40.7 µM (active)"}, {"measurement": "IC50", "setting": "[18]", "result": "80 µM (inactive)"}]}, {"compound": "O=c1ccsn1Cc1ccccc1", "values": [{"measurement": "EC50", "setting": "[19]", "result": "1.1 µM (active)"}, {"measurement": "EC50", "setting": "[20]", "result": "13 µM (active)"}, {"measurement": "EC50", "setting": "[21]", "result": "37.5 µM (active)"}, {"measurement": "EC50", "setting": "[22]", "result": "12.5 µM (active)"}, {"measurement": "IC50", "setting": "[23]", "result": "75.6 µM (inactive)"}, {"measurement": "AC50", "setting": "[24]", "result": "< 5 nM (active)"}, {"measurement": "CC50", "setting": "[25]", "result": "> 25 µM (active)"}, {"measurement": "EC50", "setting": "[26]", "result": "> 104 µM (inactive)"}]}]}
